Data from patent US20070054353A1, “Nuclear receptor transcriptional corepressor and uses thereof” (priority 2002, published 2007).

Legend:
Assay type in all cases: cell-based
5×17 mer-tk promoter = assay: GAL4-LCoR repression of 5×17 mer-tk promoter in COS-7 cells; settings: TSA 3 μM
Procedure: (§1) All cell lines were cultured under the recommended conditions. COS-7 cells grown in […] in DMEM without phenol red, supplemented with 10% FBS were transfected in medium without serum with lipofectamine 2000 (Invitrogen, Burlington, Ont.) with 100 ng of nuclear receptor expression vectors as indicated, 200 ng of TIF-2 or TIF-2.1, as indicated, 250 ng of reporter plasmid, 250 ng of infemal control vector pCMV-βgal, and various concentrations of LCoR/pSG5 or LCoR-LSKAA/pSG5 expression vectors and pSG5 carrier. Medium was replaced 24 h after transfection by a medium containing charcoal-stripped serum and ligand (100 nM) and TSA (3 μM) for 18 h, as indicated. Cells were harvested in 200 […] of reporter lysis buffer (Promega).
(§2) COS-7 cells were cotransfected with expression vectors for ERα HEG0 (A and C) or GR (D) or PR (F) or VDR (H), ERE3-TATA-pXP2 (A and C), GRE5/pXP2 (D and F) or VDRE3tk/pXP2 (H) luciferase reporter vectors, pCMV-β-gal as internal control, and LCoR/pSG5 or LSKAA/pSG5 expression vectors as indicated. Cells were treated with 10^−7M of hormones (solid bars) or vehicle (open bars). Normalized luciferase activities (RLU) are the means±SEM from at least 3 experiments. […] Cells were transfected as in FIG. 5A with LCoR, TIF-2 or TIF2.1 as indicated. […]

ERα = biological target: T1, ERα (Homo sapiens, UniProt P03372); assay: Transient transfection luciferase reporter, ERα transactivation in COS-7 cells; settings: TSA 3 μM, COS-7 cells
T1 construct: expressed in transfected cells; host or cells: COS-7
T1 sequence (P03372 1-595): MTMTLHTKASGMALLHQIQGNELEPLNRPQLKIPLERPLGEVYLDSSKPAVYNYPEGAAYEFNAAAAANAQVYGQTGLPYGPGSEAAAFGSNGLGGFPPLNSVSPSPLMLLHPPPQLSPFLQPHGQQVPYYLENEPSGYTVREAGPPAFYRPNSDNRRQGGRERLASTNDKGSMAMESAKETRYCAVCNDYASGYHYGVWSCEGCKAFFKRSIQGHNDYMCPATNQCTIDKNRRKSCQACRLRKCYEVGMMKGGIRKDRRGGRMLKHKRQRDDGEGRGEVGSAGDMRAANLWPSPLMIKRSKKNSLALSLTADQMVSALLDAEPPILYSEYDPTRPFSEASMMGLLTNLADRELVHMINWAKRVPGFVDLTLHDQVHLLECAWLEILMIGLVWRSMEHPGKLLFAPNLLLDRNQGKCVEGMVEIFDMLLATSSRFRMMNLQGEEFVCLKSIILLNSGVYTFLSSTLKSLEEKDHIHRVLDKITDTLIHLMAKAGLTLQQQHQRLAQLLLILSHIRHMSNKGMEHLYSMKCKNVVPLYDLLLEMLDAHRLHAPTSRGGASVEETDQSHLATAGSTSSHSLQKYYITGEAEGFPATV
Procedure: as §1, §2

GR = biological target: T2, GR (Homo sapiens, UniProt P04150); assay: Transient transfection luciferase reporter, GR transactivation in COS-7 cells; settings: TSA 3 μM, COS-7 cells
T2 construct: expressed in transfected cells; host or cells: COS-7
T2 sequence (P04150 1-777): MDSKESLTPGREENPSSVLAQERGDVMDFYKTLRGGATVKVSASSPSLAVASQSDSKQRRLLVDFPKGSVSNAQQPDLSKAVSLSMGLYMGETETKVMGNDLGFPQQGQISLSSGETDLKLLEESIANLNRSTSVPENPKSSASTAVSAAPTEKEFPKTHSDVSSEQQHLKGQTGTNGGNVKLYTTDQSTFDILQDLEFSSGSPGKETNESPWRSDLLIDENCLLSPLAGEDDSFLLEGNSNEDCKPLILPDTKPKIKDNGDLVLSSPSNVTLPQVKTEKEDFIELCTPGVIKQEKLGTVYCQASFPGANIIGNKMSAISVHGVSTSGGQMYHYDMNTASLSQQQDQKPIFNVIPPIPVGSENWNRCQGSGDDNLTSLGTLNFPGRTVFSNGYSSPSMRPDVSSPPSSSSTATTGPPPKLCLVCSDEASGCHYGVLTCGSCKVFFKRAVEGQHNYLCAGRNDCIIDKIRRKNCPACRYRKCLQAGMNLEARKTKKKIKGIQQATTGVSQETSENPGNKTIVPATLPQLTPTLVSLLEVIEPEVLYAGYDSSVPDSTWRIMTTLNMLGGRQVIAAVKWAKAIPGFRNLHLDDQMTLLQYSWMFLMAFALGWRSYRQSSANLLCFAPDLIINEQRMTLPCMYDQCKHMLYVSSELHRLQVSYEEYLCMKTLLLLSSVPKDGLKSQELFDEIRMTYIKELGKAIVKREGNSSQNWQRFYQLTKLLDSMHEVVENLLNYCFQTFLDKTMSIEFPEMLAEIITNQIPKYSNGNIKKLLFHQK
Procedure: as §1, §2

SMILES: CC(/C=C/C(=O)NO)=C\[C@@H](C)C(=O)c1ccc(N(C)C)cc1 [TSA, trichostatin A]
- effect on repression by GAL-LCoR (5×17 mer-tk promoter): little or no effect
- effect on LCoR-dependent repression of ERα function (ERα): completely abolished
- effect on LCoR-dependent repression of GR function (GR): completely abolished
